Experimental data from US20190016703A1, “BIFUNCTIONAL COMPOUNDS FOR HER3 DEGRADATION AND METHODS OF USE” (Dana-Farber Cancer Institute, Inc., priority 2015, published 2019).
pIC50: −log10 of the molar value.

Legend:
[1] = biological target: T1, Her3 (Homo sapiens, UniProt P21860); experiment: LanthaScreen Eu kinase binding assay; set-up: purchased Life Technologies; details: read-out: Binding affinities (IC50)
Protocol: Lantha screening is performed by following the method reported in Nature Chemical Biology, 10, 1006-1012 (2014).
Binding affinities (IC 50) of representative compounds were measured by the Life Technologies LanthaScreen Eu kinase binding assay, which was previously reported (Xie T. et al., Nat. Chew. Biol. 2014, 10, 1006-1012).
Lantha screening was performed by following the method reported in Nature Chemical Biology, 10, 1006-1012 (2014).

[2] = biological target: T1, Her3; experiment: Her3 protein degradation by Western blot (immunoblotting); type: cell-based; set-up: endogenous in cells; host or cells: PC9-GR4; Ovacar 8; key: +: Her3 protein was degraded; −: Her3 protein was not degraded; details: PC9-GR4 or Ovacar 8 cell lines, 2 μM, 4 hours and 8 hours
Protocol: Cells are seeded at the desired density the day before treatment starts with bifunctional compounds of the application at various concentration. After 4 to 12 hrs, cells are washed with buffer and lysed. The lysates are centrifuged and the supernatant is collected. Protein concentrations are measured using a protein assay kit, such as the BCA protein assay kit, Pierce, catalog number 23225) and normalized. Samples are run on a SDS-PAGE gel, and transferred to a PVDF membrane. The PVDF membrane is probed with the appropriate antibody.
Her3 protein degradation was assessed via Western blots after treatment of PC9-GR4 cell lines or Ovacar 8 cell lines with 2 μM of representative compounds for 4 hours and 8 hours.
Cells were seeded at a density of 4×10̂5 per 6 cm plate the day before treatment started with representative compounds of the application at the indicated concentration. After 4 to 12 hrs, cells were washed with phosphate-buffered saline. Lysis buffer included 50 mM Tris-HCl, […], 150 mM NaCl, 1% NP-40, and 5 mM EDTA, pH 7.4+/−0.2, Roche PhosSTOP phosphatase inhibitor cocktail tablets and Roche Complete Protease inhibitor cocktail tablets. Cell lysis was accomplished by addition of lysis buffer for 5-10 min on ice. Lysates were centrifuged in a microcentrifuge at 14,000 r.p.m. for 15 min at 4° C., and the supernatant was collected. Protein concentrations were measured using BCA protein assay kit (Pierce, catalog number 23225) and normalized. Samples were run on a 4%-12% SDS-PAGE gel at 120 V. After transfer, the PVDF membrane was probed with anti-Her3 antibody, Santa Cruz, catalog number sc-285 at 1:1000 dilution.

[3] = system: 826-GR6; experiment: Anti-proliferation assay (MTS cell viability); type: cell-based; details: 72 h, 826-GR6 cells, 3 d incubation, read-out: Cell lines (EC50, μM) 826-GR6
Protocol: Cells are seeded and incubated for 3 d after bifunctional compounds of the application are added. Cell viability is measured via MTS Assay. This assay uses a colorimetric method to determine the number of viable cells based on the bioreduction of MTS by cells to a formazan product that is soluble in cell culture medium and can be detected spectrophotometrically. In a typical experiment, the supernatant is removed and replaced by 100 μl of RPMI media supplemented with MTS reagent and PMS. The plates are measured with Perkin Elmer EnVision after reaching an optical density (OD) of 1.0-2.0 at a wavelength of 490 nm. The cell numbers are normalized compared to DMSO control, and the EC50 values are calculated using GraphPad Prism.
Five cell lines, PC9-GR4, 826-GR6, Ovacar 8, A549, and Ovacar 5 were grown and treated with representative compounds. Viability of the cells after the treatment was assessed by MTS assay.
The anti-proliferation assay was carried out using 96-well clear bottom plates. […] Cell viability was measured via MTS Assay. This assay uses a colorimetric method to determine the number of viable cells based on the bioreduction of MTS by cells to a formazan product that is soluble in cell culture medium and can be detected spectrophotometrically. […] The plates were measured with Perkin Elmer EnVision after reaching an optical density (OD) of 1.0-2.0 at a wavelength of 490 nm. […]

T1 sequence (P21860 20-1342): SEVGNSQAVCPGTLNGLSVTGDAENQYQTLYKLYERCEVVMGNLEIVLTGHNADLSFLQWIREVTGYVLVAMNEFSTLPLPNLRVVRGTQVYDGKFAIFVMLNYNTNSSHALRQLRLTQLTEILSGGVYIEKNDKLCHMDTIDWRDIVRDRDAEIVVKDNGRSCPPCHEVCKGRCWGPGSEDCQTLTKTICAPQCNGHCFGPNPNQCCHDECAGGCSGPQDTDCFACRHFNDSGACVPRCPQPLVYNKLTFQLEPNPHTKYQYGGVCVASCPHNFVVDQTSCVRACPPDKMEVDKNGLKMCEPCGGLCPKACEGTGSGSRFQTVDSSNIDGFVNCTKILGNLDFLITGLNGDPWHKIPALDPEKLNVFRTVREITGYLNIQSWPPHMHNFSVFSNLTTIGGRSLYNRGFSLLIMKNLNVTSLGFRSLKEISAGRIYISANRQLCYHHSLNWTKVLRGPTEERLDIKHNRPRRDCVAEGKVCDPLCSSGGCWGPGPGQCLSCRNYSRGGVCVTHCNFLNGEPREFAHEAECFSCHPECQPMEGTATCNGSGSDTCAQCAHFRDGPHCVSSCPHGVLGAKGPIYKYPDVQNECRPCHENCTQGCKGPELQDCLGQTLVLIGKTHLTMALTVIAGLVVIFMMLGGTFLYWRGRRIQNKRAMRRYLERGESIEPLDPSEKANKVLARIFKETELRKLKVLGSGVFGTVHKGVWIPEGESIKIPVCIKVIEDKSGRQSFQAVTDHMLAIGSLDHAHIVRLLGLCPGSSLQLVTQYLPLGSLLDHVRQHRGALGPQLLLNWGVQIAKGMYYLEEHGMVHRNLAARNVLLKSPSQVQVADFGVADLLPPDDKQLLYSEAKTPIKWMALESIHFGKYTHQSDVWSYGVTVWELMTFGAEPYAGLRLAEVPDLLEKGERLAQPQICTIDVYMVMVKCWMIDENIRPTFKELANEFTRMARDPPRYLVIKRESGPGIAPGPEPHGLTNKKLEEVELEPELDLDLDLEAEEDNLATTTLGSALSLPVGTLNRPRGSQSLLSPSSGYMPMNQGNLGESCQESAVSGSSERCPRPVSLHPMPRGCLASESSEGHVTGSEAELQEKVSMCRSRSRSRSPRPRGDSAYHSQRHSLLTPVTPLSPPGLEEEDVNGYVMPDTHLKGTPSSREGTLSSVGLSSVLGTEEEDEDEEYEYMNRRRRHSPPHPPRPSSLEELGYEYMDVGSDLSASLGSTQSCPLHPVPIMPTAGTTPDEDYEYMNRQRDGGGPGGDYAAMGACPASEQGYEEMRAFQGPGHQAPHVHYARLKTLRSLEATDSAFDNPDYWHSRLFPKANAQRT

pIC50 [1]	Her3 degradation [2]	Compound	EC50 [3] [µM]
> 8.00	−	COc1cc(Nc2c(C#N)cnc3cc(OCCCN4CCN(CC(=O)NCCOCCOCCOCCNC(=O)COc5cccc6c5C(=O)N(C5CCC(=O)NC5=O)C6=O)CC4)c(OC)cc23)c(Cl)cc1Cl (stereo not drawn) [Compound CY1]	
> 8.00	−	COc1cc(Nc2c(C#N)cnc3cc(OCCCN4CCN(C(=O)CCCNC(=O)COc5cccc6c5C(=O)N(C5CCC(=O)NC5=O)C6=O)CC4)c(OC)cc23)c(Cl)cc1Cl (stereo not drawn) [Compound CY2]	
	−	CCOc1cc2ncc(C#N)c(Nc3ccc(OCc4ccccn4)c(Cl)c3)c2cc1NC(=O)CCOCCOCCNc1cccc2c1C(=O)N(C1CCC(=O)NC1=O)C2=O (stereo not drawn) [Compound CY3]	
	−	CCOc1cc2ncc(C#N)c(Nc3ccc(OCc4ccccn4)c(Cl)c3)c2cc1NC(=O)CCOCCOCCOCCNc1cccc2c1C(=O)N(C1CCC(=O)NC1=O)C2=O (stereo not drawn) [Compound CY4]	
	−	CCOc1cc2ncc(C#N)c(Nc3ccc(OCc4ccccn4)c(Cl)c3)c2cc1NC(=O)CCOCCOCCOCCOCCOCCNc1cccc2c1C(=O)N(C1CCC(=O)NC1=O)C2=O (stereo not drawn) [Compound CY5]	
> 8.00	−	COc1cc(Nc2c(C#N)cnc3cc(OCCCN4CCN(CCOCCOCCNc5cccc6c5C(=O)N(C5CCC(=O)NC5=O)C6=O)CC4)c(OC)cc23)c(Cl)cc1Cl (stereo not drawn) [Compound CY6]	5 to 15
> 8.00	−	COc1cc(Nc2c(C#N)cnc3cc(OCCCN4CCN(CCOCCOCCOCCNc5cccc6c5C(=O)N(C5CCC(=O)NC5=O)C6=O)CC4)c(OC)cc23)c(Cl)cc1Cl (stereo not drawn) [Compound CY7]	5 to 15
	−	COc1cc(Nc2c(C#N)cnc3cc(OCCCOCCOCCOCCNc4cccc5c4C(=O)N(C4CCC(=O)NC4=O)C5=O)c(OC)cc23)c(Cl)cc1Cl (stereo not drawn) [Compound CY8]	
7.00 to 8.00	+	COc1cc(Nc2c(C#N)cnc3cc(OCCCOCCOCCOCCOCCNc4cccc5c4C(=O)N(C4CCC(=O)NC4=O)C5=O)c(OC)cc23)c(Cl)cc1Cl (stereo not drawn) [Compound CY9]	
	−	COc1cc2ncnc(Nc3cccc(Cl)c3F)c2cc1OC1CCN(CC(=O)NCCOCCOCCNc2cccc3c2C(=O)N(C2CCC(=O)NC2=O)C3=O)CC1 (stereo not drawn) [Compound CY10]	
	−	COc1cc2ncnc(Nc3cccc(Cl)c3F)c2cc1OC1CCN(CC(=O)NCCOCCOCCOCCNc2cccc3c2C(=O)N(C2CCC(=O)NC2=O)C3=O)CC1 (stereo not drawn) [Compound CY11]	
